Key:
D(2) dopamine receptor = D(2) dopamine receptor (Rattus norvegicus, UniProt P61169); test: Agonist activity at Rattus norvegicus (rat) dopamine D2 receptor transfected in african green monkey COS7 cells assessed as inhibition of forskolin-stimulated adenylyl cyclase activity after 10 min; format: functional, cell-based, COS-7
D(3) dopamine receptor = D(3) dopamine receptor (Rattus norvegicus, UniProt P19020); test: biochemical
[1] = target: Dopamine receptor D2 and D3 (Rattus norvegicus, UniProt P19020+P61169); test: Agonist activity at Rattus norvegicus (rat) dopamine D2/D3 receptor transfected in african green monkey COS7 cells assessed as inhibition of forskolin-stimulated adenylyl cyclase activity after 10 min; format: functional, cell-based; conditions: cos-7

Sequence of D(3) dopamine receptor (P19020 whole entry): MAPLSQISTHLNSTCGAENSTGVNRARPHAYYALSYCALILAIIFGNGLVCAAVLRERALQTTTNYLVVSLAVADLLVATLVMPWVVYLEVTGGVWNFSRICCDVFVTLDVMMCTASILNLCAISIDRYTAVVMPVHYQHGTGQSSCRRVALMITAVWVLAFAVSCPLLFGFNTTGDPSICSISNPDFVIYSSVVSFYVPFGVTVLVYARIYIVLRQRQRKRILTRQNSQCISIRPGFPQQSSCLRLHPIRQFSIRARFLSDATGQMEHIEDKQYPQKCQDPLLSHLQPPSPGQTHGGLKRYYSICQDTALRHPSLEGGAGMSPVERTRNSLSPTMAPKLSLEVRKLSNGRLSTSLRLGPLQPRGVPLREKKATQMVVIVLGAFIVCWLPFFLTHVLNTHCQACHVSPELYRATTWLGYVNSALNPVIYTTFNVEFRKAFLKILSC
Sequence of D(2) dopamine receptor (P61169 whole entry): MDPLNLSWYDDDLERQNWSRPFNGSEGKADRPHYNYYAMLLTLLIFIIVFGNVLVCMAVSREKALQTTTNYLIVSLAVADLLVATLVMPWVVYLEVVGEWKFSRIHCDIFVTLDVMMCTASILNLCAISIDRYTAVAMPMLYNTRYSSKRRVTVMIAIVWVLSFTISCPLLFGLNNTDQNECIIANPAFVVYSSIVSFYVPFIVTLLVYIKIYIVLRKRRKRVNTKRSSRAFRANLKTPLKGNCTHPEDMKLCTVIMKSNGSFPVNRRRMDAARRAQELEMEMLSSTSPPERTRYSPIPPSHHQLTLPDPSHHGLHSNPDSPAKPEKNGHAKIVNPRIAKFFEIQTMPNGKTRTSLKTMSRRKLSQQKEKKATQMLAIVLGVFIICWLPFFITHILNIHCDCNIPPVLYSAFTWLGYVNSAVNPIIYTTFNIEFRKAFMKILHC

Structure (SMILES) | EC50 (D(2) dopamine receptor) | IC50 (D(3) dopamine receptor) | EC50 [1] | Ki (D(3) dopamine receptor)
CCCN(CCC)CCc1cccc2c1CC(=O)N2 [ROPINIROLE] | 75.5 nM |  |  | 
CCCN1CCO[C@@H]2c3cc(C(N)=O)ccc3CC[C@H]21 (relative stereo) | 49.5 nM | 4.13 nM | 1.5 nM | 
CCCN[C@H]1CCc2nc(N)sc2C1 [PRAMIPEXOLE] |  | 7.8 nM |  | 
N#Cc1ccc2c(c1)[C@H]1CN(CCCCNC(=O)c3ccc(-c4ccccc4)cc3)C[C@@H]1CO2 |  |  |  | 2.42 nM
